Values quoted from earlier work as cited in US20190000794A1, “TRANSMUCOSAL CANNABINOID FORMULATION INCLUDING A CHITOSAN EXCIPEINT” (priority 2017, published 2019).

Conditions: oral consumption; first pass metabolism in the liver

For `CCCCCc1cc(O)c2c(c1)OC(C)(C)[C@@H]1CCC(C)=C[C@@H]21` [THC, trans-Δ^9-tetrahydrocannabinol], the “fraction of THC consumed orally that is metabolized through first pass metabolism” value is listed as “up to 97%”.
